From ChEMBL document CHEMBL1132357, “Synthesis and properties of 3-(2-hydroxyethyl)-3-n-pentyldiazirine, a photoactivable general anesthetic” (J Med Chem, 1999)

Assay: The compound was tested for anesthetic potency in tadpoles
Type: functional, frog

- EC50: 160 µM
Compound: CCCCCC1(CCO)N=N1
